In patent US7781445B2, “Synthesis of indenoisoquinoliniums and methods of use” (Purdue Research Foundation, priority 2005, dated 2010):
Like-named read-outs stand apart in the source and are kept apart here.

Tests used:
OVCAR-3 = test: COMPARE screening (NCI), GI50 in OVCAR-3; conditions: OVCAR-3, concentration corresponding to 50% growth inhibition
Source text: (§1) This in vitro prescreening system is based on the measurement of anticancer cytotoxicity against human cancer cell line panels consisting of approximately 60 cell lines of major human cancers (including leukemia, and slower growing tumor cells such as lung, colon, breast, skin, kidney, etc.) and is referred hereinafter as “COMPARE” screening.
(§2) COMPARE screening. The compounds described herein were examined for antiproliferative activity against the human cancer cell lines in the National Cancer Institute screen (COMPARE screening), in which the activity of each compound was evaluated with approximately 55 different cancer cell lines of diverse tumor origins. […] Therefore, the MGM value represents an overall assessment of toxicity of the compound across numerous cell lines.

MDA-MB-435 = test: COMPARE screening (NCI), GI50 in MDA-MB-435
Source text: as §1, §2

DU-145 = test: COMPARE screening (NCI), GI50 in DU-145
Source text: as §1, §2

[1] = test system: all human cancer cell lines successfully tested (approximately 55); test: COMPARE screening, mean graph midpoint (MGM); format: cell-based; conditions: average GI50 over all cell lines tested, values outside 10^-8 to 10^-4 molar taken as the limits, read-out: MGM (mean graph midpoint for growth inhibition); for MGM (mean GI50 across cell lines): Homo sapiens
Source text: as §1, §2

SF-539 = test: COMPARE screening (NCI), GI50 in SF-539
Source text: as §1, §2

HOP-62 = test: COMPARE screening (NCI), GI50 in HOP-62
Source text: as §1, §2

SN12C = test: COMPARE screening (NCI), GI50 in SN12C
Source text: as §1, §2

UACC-62 = test: COMPARE screening (NCI), GI50 in UACC-62
Source text: as §1, §2

SR = test system: SR
Source text: as §1, §2

HCT-116 = test: COMPARE screening (NCI), GI50 in HCT-116
Source text: as §1, §2

topoisomerase I = target: T1, topoisomerase I (Homo sapiens, UniProt P11387); test: Topoisomerase I-mediated DNA cleavage, 3'-end-labeled 161 bp pBluescript SK(-) fragment; format: biochemical; conditions: Table 2; tested at concentrations ranging up to 10 μM; semi-quantitative relative to compound A
T1 sequence (P11387 1-765): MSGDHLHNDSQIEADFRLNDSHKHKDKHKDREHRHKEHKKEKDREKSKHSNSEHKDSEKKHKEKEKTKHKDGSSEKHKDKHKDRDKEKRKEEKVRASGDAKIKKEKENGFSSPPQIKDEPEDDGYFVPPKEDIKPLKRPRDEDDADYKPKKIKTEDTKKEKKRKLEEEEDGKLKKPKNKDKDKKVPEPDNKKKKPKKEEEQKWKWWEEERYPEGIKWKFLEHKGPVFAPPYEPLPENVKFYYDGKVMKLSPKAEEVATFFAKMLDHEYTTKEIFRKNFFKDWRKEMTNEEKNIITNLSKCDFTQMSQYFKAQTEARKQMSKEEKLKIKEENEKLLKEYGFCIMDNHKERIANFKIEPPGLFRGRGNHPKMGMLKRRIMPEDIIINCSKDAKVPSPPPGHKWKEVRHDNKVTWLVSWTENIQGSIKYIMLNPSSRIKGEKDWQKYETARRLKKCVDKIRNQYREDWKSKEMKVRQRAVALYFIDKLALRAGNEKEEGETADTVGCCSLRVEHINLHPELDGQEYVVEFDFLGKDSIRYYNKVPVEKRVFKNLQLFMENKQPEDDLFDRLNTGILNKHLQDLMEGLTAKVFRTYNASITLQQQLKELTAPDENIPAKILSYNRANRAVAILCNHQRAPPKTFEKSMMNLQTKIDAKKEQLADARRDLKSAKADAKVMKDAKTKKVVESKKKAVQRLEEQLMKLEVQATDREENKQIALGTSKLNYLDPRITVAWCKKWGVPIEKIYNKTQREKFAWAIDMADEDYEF
Method: The assays were carried out at room temperature for 30 min and stopped by adding 0.5% SDS. […] Topoisomerase I was present in all reaction mixtures except for the one corresponding to the first lane.
Induction of DNA cleavage.
Labeling reactions were followed by phenol-chloroform extraction and ethanol precipitation. […] Reactions were terminated by adding 0.5% SDS.
DNA Cleavage Semiquantitative Analysis. […] The rubberband baseline correction was applied with band detection sensitivity set at 90.

[2] = Homo sapiens, OVCAR-3, read-out: Cytotoxicity GI50, ovarian OVCAR-3, ovarian
[3] = Homo sapiens, MDA-MB-435, read-out: Cytotoxicity GI50, breast MDA-MB-435, breast, MDA-MB-435, concentration corresponding to 50% growth inhibition
[4] = Homo sapiens, DU-145, read-out: Cytotoxicity GI50, prostate DU-145, prostate, DU-145, concentration corresponding to 50% growth inhibition
[5] = Homo sapiens, read-out: Cytotoxicity GI50, CNS SF-539
[6] = Homo sapiens, HOP-62, read-out: Cytotoxicity GI50, lung HOP-62, lung, HOP-62, concentration corresponding to 50% growth inhibition
[7] = Homo sapiens, SN12C, read-out: Cytotoxicity GI50, renal SN12C, renal, SN12C, concentration corresponding to 50% growth inhibition
[8] = Homo sapiens, UACC-62, read-out: Cytotoxicity GI50, melanoma UACC-62, melanoma, UACC-62, concentration corresponding to 50% growth inhibition
[9] = Homo sapiens, HCT-116, read-out: Cytotoxicity GI50, colon HCT-116, colon, HCT-116, concentration corresponding to 50% growth inhibition

| SMILES | GI50 (OVCAR-3; read-out: Cytotoxicity GI50, ovarian OVCAR-3, ovarian) | GI50 (MDA-MB-435) | GI50 (DU-145) | IC50 [1] | GI50 (SF-539) | GI50 (HOP-62) | GI50 (SN12C) | GI50 (UACC-62) | GI50 (SR) | GI50 (HCT-116) | GI50 (OVCAR-3; [2]) | GI50 (MDA-MB-435; [3]) | GI50 (DU-145; [4]) | MGM (mean GI50 across cell lines) [1] | GI50 (SF-539; [5]) | GI50 (HOP-62; [6]) | Top 1 Cleavage (topoisomerase I) | GI50 (SN12C; [7]) | GI50 (UACC-62; [8]) | GI50 (HCT-116; [9]) |
| --- | --- | --- | --- | --- | --- | --- | --- | --- | --- | --- | --- | --- | --- | --- | --- | --- | --- | --- | --- | --- |
| COc1cc2c[n+](CCCNC(C)=O)c3c(c2cc1OC)C(=O)c1cc2c(cc1-3)OCO2 [Compound 6ab, 2,3-Dimethoxy-6-(3-N-acetylamino-1-propyl)-8,9-(methylenedioxy)-11-oxo-indeno[1,2-c]isoquinolinium Chloride] | 12.2 µM | 0.466 µM | 0.907 µM | 7.96 µM | 0.0968 µM | 1 µM | 2.76 µM | 3.43 µM | 0.0929 µM | 5.08 µM |  |  |  |  |  |  |  |  |  |  |
| COc1cc2c3c(ncc2c(OC)c1OC)-c1c(ccc2c1OCO2)C3.Cl [Compound 9cb, 2,3,4-Trimethoxy-7,8-methylenedioxy-11H-indeno[1,2-c]isoquinoline Hydrochloride] |  |  |  |  |  |  |  |  |  |  | 0.403 µM | 0.178 µM | > 100 µM | 2.01 µM | 0.869 µM | 0.234 µM | ++ (++, similar activity as compound A) | 0.602 µM | 0.439 µM | 0.0694 µM |
| COc1ccc2c(c1OC)-c1ncc3c(OC)ccc(OC)c3c1C2.Cl [Compound 9da, 1,4,7,8-Tetramethoxy-11H-indeno[1,2-c]isoquinoline Hydrochloride] |  |  |  |  |  |  |  |  |  |  | 15.4 µM | 23.4 µM | 28.1 µM | 18.6 µM | 14 µM | 21.4 µM | 0 (0, no activity) | 14.8 µM | 18 µM | 17.8 µM |
